Results: ChEMBL document CHEMBL1275274, “Direct renin inhibitors as a new therapy for hypertension” (J Med Chem, 2010)
Substitutions are numbered along the chain they refer to. Values after ≈ are worked out from the molar mass of the structure shown.

Legend:
[1] = target: T1, Renin (Homo sapiens, UniProt P00797); assay: Binding affinity to human recombinant renin by isothermal titration calorimetry
T1 sequence (P00797 whole entry): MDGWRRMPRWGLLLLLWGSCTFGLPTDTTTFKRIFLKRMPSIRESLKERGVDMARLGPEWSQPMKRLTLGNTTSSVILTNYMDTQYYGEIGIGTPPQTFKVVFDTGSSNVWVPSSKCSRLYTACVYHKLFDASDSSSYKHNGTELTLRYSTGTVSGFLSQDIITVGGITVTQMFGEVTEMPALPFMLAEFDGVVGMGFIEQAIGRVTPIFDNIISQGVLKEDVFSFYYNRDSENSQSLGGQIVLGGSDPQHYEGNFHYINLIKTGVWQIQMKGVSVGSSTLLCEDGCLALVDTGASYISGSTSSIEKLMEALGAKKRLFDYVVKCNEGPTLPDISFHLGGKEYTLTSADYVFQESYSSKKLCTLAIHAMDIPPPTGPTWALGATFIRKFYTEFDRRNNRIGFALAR

[2] = target: T1, Renin; format: cell-free, Plasma
[3] = Oral bioavailability in rat; format: ADME, organism-based; settings: in vivo
[4] = target: T1, Renin; assay: Inhibition of human recombinant renin in buffer
[5] = Distribution coefficient, log D of the compound; format: physicochemical; settings: octanol/water
[6] = Aqueous solubility of the compound at pH 6.6 buffer; format: physicochemical
[7] = target: T1, Renin; assay: Inhibition of renin in pH 7.4 buffer
[8] = target: Voltage-gated inwardly rectifying potassium channel KCNH2 (Homo sapiens, UniProt Q12809); assay: Inhibition of human ERG
[9] = tested on: Canis familiaris; assay: (§1) Oral bioavailability in dog; format: ADME, organism-based, Canis lupus familiaris; settings: in vivo
[10] = tested on: Callithrix jacchus; assay: Oral bioavailability in marmoset; format: ADME, organism-based; settings: in vivo
[11] = target: T2, Renin-1 (Mus musculus, UniProt P06281); assay: Inhibition of mouse renin
T2 sequence (P06281 whole entry): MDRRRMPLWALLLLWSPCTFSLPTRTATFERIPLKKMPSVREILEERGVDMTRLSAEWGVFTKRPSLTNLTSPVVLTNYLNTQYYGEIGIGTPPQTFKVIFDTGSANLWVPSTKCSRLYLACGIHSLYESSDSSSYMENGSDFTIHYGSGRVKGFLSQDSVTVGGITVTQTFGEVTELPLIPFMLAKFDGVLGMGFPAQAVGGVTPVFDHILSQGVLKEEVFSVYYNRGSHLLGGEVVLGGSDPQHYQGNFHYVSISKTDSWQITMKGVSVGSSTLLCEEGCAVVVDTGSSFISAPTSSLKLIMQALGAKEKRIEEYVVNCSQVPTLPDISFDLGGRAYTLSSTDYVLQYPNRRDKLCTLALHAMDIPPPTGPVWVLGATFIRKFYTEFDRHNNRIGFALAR

[12] = as §1; format: ADME, organism-based, Canis lupus familiaris; settings: in vivo
[13] = Partition coefficient, log P of the compound at pH 7.4; format: physicochemical; settings: octanol/water
[14] = Inhibition of Cytochrome P450; format: ADME
[15] = Oral bioavailability in Wistar rat; format: ADME, organism-based; settings: in vivo
[16] = Elimination half life in Wistar rat; format: ADME, organism-based; settings: in vivo, read-out: beta t1/2 (converted)
[17] = Tmax in Wistar rat; format: ADME, organism-based; settings: in vivo
[18] = target: T1, Renin; assay: Inhibition of renin in human plasma; format: cell-free
[19] = target: T3, Renin (Macaca mulatta, UniProt Q6DLW5); assay: Inhibition of renin in monkey plasma
T3 sequence (Q6DLW5 whole entry): T1 sequence (P00797 whole entry) with T68A, I214L, S235A, Q270P, R406H

[20] = Oral bioavailability in monkey; format: ADME, organism-based, Macaca mulatta; settings: rhesus monkey, in vivo
[21] = target: Cathepsin D (Homo sapiens, UniProt P07339); assay: Inhibition of cathepsin D
[22] = target: T4, Cathepsin E (Homo sapiens, UniProt P14091); assay: Inhibition of cathepsin E
T4 sequence (P14091 whole entry): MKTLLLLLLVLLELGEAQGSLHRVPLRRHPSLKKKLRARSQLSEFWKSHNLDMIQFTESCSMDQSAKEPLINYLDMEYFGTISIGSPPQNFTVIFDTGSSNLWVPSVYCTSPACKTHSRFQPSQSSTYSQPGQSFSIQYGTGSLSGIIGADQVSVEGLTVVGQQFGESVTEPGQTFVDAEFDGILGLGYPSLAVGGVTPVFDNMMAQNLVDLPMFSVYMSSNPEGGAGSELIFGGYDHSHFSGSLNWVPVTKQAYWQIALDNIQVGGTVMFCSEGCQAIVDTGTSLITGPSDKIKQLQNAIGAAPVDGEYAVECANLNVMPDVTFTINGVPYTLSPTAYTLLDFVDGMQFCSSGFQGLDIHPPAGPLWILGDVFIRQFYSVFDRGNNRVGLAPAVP

[23] = Oral bioavailability in rhesus monkey; format: ADME, organism-based, Macaca mulatta; settings: in vivo
[24] = Elimination half life in dog; format: ADME, organism-based, Canis lupus familiaris; settings: in vivo, read-out: beta t1/2 (converted)
[25] = Elimination half life in rhesus monkey; format: ADME, organism-based, Macaca mulatta; settings: in vivo, read-out: beta t1/2 (converted)
[26] = target: Cytochrome P450 3A4 (Homo sapiens, UniProt P08684); assay: Inhibition of CYP3A4; format: ADME
[27] = Competitive inhibition of pig pepsin at pH 5; parameters: species or system Sus scrofa

Sequence of Cytochrome P450 3A4 (P08684 whole entry): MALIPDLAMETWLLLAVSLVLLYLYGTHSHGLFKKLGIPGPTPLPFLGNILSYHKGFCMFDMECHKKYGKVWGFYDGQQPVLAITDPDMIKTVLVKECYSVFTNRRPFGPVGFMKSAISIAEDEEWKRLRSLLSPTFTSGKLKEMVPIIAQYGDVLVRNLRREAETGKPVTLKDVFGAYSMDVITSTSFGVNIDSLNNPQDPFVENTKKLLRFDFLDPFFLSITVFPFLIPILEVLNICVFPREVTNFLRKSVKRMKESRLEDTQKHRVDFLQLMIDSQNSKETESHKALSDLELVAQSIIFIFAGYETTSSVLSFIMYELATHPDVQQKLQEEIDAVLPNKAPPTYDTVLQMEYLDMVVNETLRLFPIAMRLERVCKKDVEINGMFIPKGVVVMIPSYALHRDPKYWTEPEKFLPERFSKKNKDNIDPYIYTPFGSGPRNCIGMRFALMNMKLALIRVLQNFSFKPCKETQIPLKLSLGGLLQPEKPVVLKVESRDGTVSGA
Sequence of Cathepsin D (P07339 65-162 limits assumed): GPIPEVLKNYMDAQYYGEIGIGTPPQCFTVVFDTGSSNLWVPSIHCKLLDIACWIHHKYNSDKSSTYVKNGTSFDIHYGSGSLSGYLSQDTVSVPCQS
Sequence of Cathepsin D (P07339 169-412 limits assumed): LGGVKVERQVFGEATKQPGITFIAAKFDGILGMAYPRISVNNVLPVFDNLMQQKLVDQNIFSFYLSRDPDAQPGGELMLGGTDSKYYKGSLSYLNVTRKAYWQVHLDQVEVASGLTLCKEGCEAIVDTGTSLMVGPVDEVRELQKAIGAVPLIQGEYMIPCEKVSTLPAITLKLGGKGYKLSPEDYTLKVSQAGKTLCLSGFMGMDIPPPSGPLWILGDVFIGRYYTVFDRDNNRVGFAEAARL
Sequence of Voltage-gated inwardly rectifying potassium channel KCNH2 (Q12809 whole entry): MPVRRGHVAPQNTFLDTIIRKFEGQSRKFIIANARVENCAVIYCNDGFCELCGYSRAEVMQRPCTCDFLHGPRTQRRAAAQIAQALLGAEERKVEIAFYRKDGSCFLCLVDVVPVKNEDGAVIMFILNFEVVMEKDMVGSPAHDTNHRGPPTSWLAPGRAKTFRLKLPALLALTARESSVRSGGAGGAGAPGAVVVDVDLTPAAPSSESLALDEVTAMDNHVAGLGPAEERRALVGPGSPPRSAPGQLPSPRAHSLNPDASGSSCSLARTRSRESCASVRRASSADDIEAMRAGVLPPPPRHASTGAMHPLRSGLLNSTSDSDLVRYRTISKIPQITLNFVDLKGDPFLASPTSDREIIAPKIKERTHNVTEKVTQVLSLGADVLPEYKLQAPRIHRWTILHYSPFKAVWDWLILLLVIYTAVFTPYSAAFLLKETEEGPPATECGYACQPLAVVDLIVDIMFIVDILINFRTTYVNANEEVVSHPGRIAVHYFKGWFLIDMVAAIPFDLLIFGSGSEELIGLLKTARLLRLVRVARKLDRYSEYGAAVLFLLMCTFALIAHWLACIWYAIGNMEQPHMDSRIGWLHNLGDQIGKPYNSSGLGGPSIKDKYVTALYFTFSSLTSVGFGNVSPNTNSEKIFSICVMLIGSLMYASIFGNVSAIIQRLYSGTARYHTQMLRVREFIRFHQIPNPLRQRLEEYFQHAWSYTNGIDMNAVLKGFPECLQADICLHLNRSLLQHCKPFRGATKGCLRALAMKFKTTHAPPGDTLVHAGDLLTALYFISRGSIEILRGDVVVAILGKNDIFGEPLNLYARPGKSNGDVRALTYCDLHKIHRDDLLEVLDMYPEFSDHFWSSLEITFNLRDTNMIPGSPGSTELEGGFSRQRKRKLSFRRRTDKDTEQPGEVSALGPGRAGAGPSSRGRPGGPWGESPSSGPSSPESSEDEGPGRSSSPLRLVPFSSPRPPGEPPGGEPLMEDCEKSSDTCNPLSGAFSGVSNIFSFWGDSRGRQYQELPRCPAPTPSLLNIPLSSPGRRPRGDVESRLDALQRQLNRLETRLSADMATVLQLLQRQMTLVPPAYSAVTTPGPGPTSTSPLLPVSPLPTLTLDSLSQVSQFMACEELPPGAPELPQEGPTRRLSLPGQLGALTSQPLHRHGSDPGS

## CCc1nc(N)nc(NCCNS(=O)(=O)c2ccc3ccccc3c2)c1-c1ccc2c(c1)N(CCCOC)C(=O)C(C)(C)O2
[1]
  Kd: 79 nM

## CNC[C@H](CC1CCCCC1)NC(=O)N1CCC[C@@H]([C@@H](OCCCOC)c2ccccc2)C1
[2]
  IC50: 447 nM
[3]
  bioavailability: 36%

## COCCCN1C(=O)COC2C=CC(SC[C@H]3CNCC(=O)N3c3ccc(OCCCOCc4ccccc4OC)cc3)=CC21 (stereo not given in full)
[4]
  IC50: 0.18 nM

## COCCCN1C(=O)COC2C=CC(OC[C@H]3CNCC(=O)N3c3ccc(OCCCOCc4ccccc4OC)cc3)=CC21 (stereo not given in full)
[4]
  IC50: 0.68 nM

## COc1ccccc1COCCCOc1ccc([C@H]2CCNC[C@@H]2OCc2ccc3c(c2)NCCC3)cc1
[2]
  IC50: 31 nM
[4]
  IC50: 0.21 nM
[5]
  logD: 5.6
[6]
  solubility: 3 µg/mL (≈ 5.81 µM)

## COc1ccccc1COCCCOc1ccc(C2=C(C(=O)N(Cc3ccnc(OC)c3C)C3CC3)[C@H]3CNC[C@@H](C2)N3)cc1
[2]
  IC50: 18 nM
[4]
  IC50: 1.4 nM

## CCC(C)C[C@H](NC(=O)[C@@H](NC[C@@H](O)[C@@H](N)CCCc1ccc(-c2ccccc2)cc1)C(C)C)C(=O)NCCCc1ccccc1 (stereo not given in full)
[7]
  IC50: 4 nM

## COc1ccccc1COCCCOc1ccc([C@H]2CCNC[C@@H]2OCc2ccc3c(c2)N(CCNC(C)=O)CCC3)cc1
[2]
  IC50: 0.6 nM
[5]
  logD: 3
[6]
  solubility: 124 µg/mL (≈ 206 µM)

## CCc1nc(N)nc(NCCc2ccccc2NC(=O)c2ccc(N)c(OC)c2)c1-c1ccc2c(c1)N(CCCOC)C(=O)C(C)(C)O2
[1]
  Kd: 270 nM

## CNC[C@H](CC1CCCCC1)NC(=O)N1CCC[C@@H]([C@@](O)(CCCCOC)c2cccc(Cl)c2)C1
[6]
  solubility: > 1000 µg/mL
[3]
  bioavailability: 13%
[8]
  IC50: > 30000 nM

## CCCCNC(=O)[C@H](C)C[C@H](O)[C@@H](N)C[C@H](C)COC(=O)c1cn(Cc2ccccc2)c2ccccc12
[4]
  IC50: 1 nM

## COc1ccccc1COCCCOc1ccc(N2C(=O)CNC[C@@H]2COCc2cccnc2)cc1
[4]
  IC50: 12 nM

## COCCCOc1cc(C[C@@H](C[C@H](N)[C@@H](O)C[C@H](C(=O)NCC(C)(C)C(N)=O)C(C)C)C(C)C)ccc1OC
[9]
  F: 32%
[10]
  F: 16%
[11]
  IC50: 4.5 nM

## COc1ccccc1COCCCOc1ccc([C@@H]2[C@@H](OCc3cc(OC)c4ccccc4c3)CNC[C@H]2OC[C@H](O)CO)cc1
[2]
  IC50: 2.2 nM
[4]
  IC50: 0.06 nM
[6]
  solubility: 24 µg/mL (≈ 38 µM)
[12]
  bioavailability: 27%
[13]
  logD: 3.7

## COCCCCOc1ccccc1C(=O)NC[C@@H](C[C@H](N)[C@@H](O)C[C@H](C(=O)NCCC1CCN(C(C)=O)CC1)C(C)C)C(C)C
[2]
  IC50: 0.3 nM

## Brc1ccc([C@H]2CCNC[C@@H]2OCc2ccc3ccccc3c2)cc1
[4]
  IC50: 5000 nM

## CC(C)C[C@H](O)[C@H](O)[C@H](CC1CCCCC1)NC(=O)[C@H](Cc1cnc[nH]1)NC(=O)C[C@H](C)c1ccccc1
[4]
  IC50: 11 nM

## COC[C@@H]1CNC[C@H](OCc2ccc3ccccc3c2)[C@H]1c1ccc(COC(=O)c2ccccc2Cl)cc1
[4]
  IC50: 2 nM

## CC[C@H]1CC[C@](O)(CCc2ccccc2)C[C@@H]1C(=O)N[C@@H](CC1CCCCC1)[C@@H](O)[C@@H](O)CC(C)C
[4]
  IC50: 11 nM

## CCc1nc(N)nc(N)c1-c1ccc2c(c1)N(CCCO)C(=O)C(C)(c1ccccc1)O2 (racemic)
[3]
  bioavailability: 44%
[14]
  IC50: > 30000 nM

## CN[C@H](CNC(=O)N1CCC[C@@H]([C@@H](OCCNC(=O)OC)c2cccc(Cl)c2)C1)C[C@H]1CCCOC1 [VTP-27999]
[2]
  IC50: < 10 nM

## CCc1nc(N)nc(N)c1-c1ccc2c(c1)N(CCNC(C)=O)C(=O)[C@](C)(c1ccccc1)O2
[3]
  bioavailability: 10%

## CCCCNC(=O)[C@H](C)C[C@H](O)[C@@H](N)CC(C)(C)CC(=O)N1C[C@H](C(=O)OC)Cc2ccccc21
[4]
  IC50: 0.8 nM

## CCCCNC(=O)[C@H](C)C[C@H](O)[C@@H](N)C[C@@H](CNC(=O)c1cn(CC)c2ccccc12)C(C)C
[2]
  IC50: 4 nM

## Cc1cc(Cl)c(OCCOc2ccc(C3=C(C(=O)N(Cc4cccc(C)c4C)C4CC4)[C@H]4CNC[C@@H](C3)N4)cc2)c(Cl)c1
[2]
  IC50: 19 nM
[4]
  IC50: 0.2 nM
[5]
  logD: > 4.9
[3]
  bioavailability: 24%
[15]
  bioavailability: 24%
[16]
  half-life: 6.6 h
[17]
  Tmax: 10 h

## CCCCNC(=O)[C@@H](NC[C@@H]1CCCCOc2ccccc2C[C@H](NC(=O)OC(C)(C)C)C(=O)N[C@@H](Cc2cnc[nH]2)C(=O)N1)C(C)C
[18]
  IC50: 20 nM

## C=CC[C@H](NC(=O)CNS(=O)(=O)N1CCOCC1)C(=O)N[C@@H](CC1CC=C(c2cccc3ccccc23)CC1)[C@@H](O)[C@@H](O)CC(C)C (stereo not given in full)
[19]
  IC50: 11 nM

## COc1ccccc1COCCCOc1ccc(N2C(=O)CNC[C@@H]2COC2=CC3C(C=C2)CCCN3CCNC(C)=O)cc1 (stereo not given in full)
[4]
  IC50: 0.29 nM

## COc1cccc(OCCCc2cccnc2)c1C(=O)N[C@@H](CC1CCCCC1)[C@@H](O)[C@@H](O)CC(C)C
[4]
  IC50: 39 nM

## O=C(C1=C(c2ccc(CCCOc3c(F)ccc(F)c3Cl)cc2)C[C@@H]2CNC[C@H]1N2)N(Cc1cccc(Cl)c1Cl)C1CC1
[5]
  logD: > 4.6
[12]
  bioavailability: 36%
[20]
  bioavailability: 9%
[21]
  IC50: 2700 nM
[22]
  IC50: 8100 nM
[23]
  bioavailability: 9%
[24]
  half-life: 10 h
[25]
  half-life: 10 h
[26]
  IC50: > 10000 nM

## COc1ccccc1COCCCOc1ccc(C2=C(C(=O)N(Cc3cccc(OC)c3C)C3CC3)[C@H]3CNC[C@@H](C2)N3)cc1
[4]
  IC50: 0.62 nM

## COc1ccccc1COCCCOc1ccc(N2CCNC[C@@H]2COC2=CC3C(C=C2)CCCN3CCNC(C)=O)cc1 (stereo not given in full)
[4]
  IC50: 0.5 nM

## CNC[C@H](CC1CCCCC1)NC(=O)N1CCC[C@@H]([C@@H](OCCNC(=O)OC)c2cccc(Cl)c2)C1
[2]
  IC50: 0.8 nM
[3]
  bioavailability: 9%

## COC[C@@H](O)CO[C@@H]1CNC[C@H](OCc2cc(OC)c3ccccc3c2)[C@H]1c1ccc(OCCCOCc2ccccc2OC)cc1
[2]
  IC50: 8.9 nM
[6]
  solubility: 3 µg/mL (≈ 4.65 µM)
[12]
  bioavailability: 6%
[13]
  logD: 5.7

## COc1ccc(CO[C@H]2CNCC[C@@H]2c2ccc(Cl)cc2)cc1
[4]
  IC50: 25000 nM
[27]
  IC50: 1500 nM
